What all share (assay): NCI-60 cell line screen, 48 h
Assay [1] concerns 786-0 renal.
Assay [2] relates to MDA-N.
The test system of assay [3] is IGROV1 ovarian.
The test system of assay [4] is K-562 leukemia.
Assay [5] has as its system UACC-257 melanoma.
Assay [6] concerns SW-620 colon.
Assay [7] deals with SF-539 CNS.
In assay [8] the test system is OVCAR-4 ovarian.
Assay [9] concerns NCI-H460 lung.
In assay [10] the test system is OVCAR-8 ovarian.
The subject of assay [11] is SK-MEL-2 melanoma.
Assay [12] has as its system SNB-75 CNS.
The test system of assay [13] is LOX IMVI melanoma.
For assay [14], the system named is MDA-MB-435.
Assay [15] concerns A549 NSCLC.
The subject of assay [16] is CAKI-1 renal.
For assay [17], the system named is UACC-62 melanoma.

Structures are written as SMILES. “And” between values parts separate entries of the source, which are not always exact repeats. Identical values can stand only once.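 Following 48 hours of exposure in 96-well plates, responses at five concentrations were used to interpolate endpoints linearly. GI50 is the concentration that inhibits growth by half. At the TGI there is no net growth.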 Some results are limits rather than exact numbers.

Take `CC1(C#N)CC(C)(C)C(/C=C2/CC(C)(C)C(/C=C3/OC(=N)CC3(C)C)=N2)=N1` (stereo not drawn): the TGI in assay [1] is 62.6 µM; in [2], 92.1 µM; in assay [3], 46.3 µM; in assay [4], 78.1 µM; in assay [5], 48.7 µM; in assay [6], over 100 µM. Further, the TGI was over 100 µM in assay [7]; 43.7 µM in [8]; 39.9 µM in assay [9]; 74 µM in assay [10]; over 100 µM in assay [11]; over 100 µM in [12]. Besides, the TGI is over 100 µM in assay [13]; 63.9 µM in [14]; over 100 µM in [15]; over 100 µM in assay [16]; 66 µM in [17].
As to `CCOC(=O)C(N)CSC(=O)NC` (stereo not drawn), the TGI in [1] turned out to be 201 µM; in assay [2], 116 µM; in assay [3] it was 481 µM; in assay [4], 284 µM; in assay [5], 535 µM; in assay [6] it was 308 µM. The TGI in assay [7] came out at 231 µM; in assay [8], 481 µM; in [9] it was 397 µM; in assay [10], 314 µM; in assay [11], 276 µM; in [12], 598 µM. Also, the TGI was found to be 133 µM in assay [13]; 98.4 µM in assay [14]; 836 µM in assay [15]; 461 µM in assay [16]; 304 µM in assay [17].
Take `N#CSc1nc[nH]c1C(N)=O`: the TGI was 98.8 µM in [1]; over 100 µM in [2]; over 100 µM in [3]; over 100 µM in [4]; over 100 µM in [5]; over 100 µM in assay [6]. Further, the TGI in assay [7], in [8], in [9], in assay [10], in [11] and in assay [12] was over 100 µM in each case. Further, the TGI in assay [13] is over 100 µM; in assay [14], over 100 µM; in assay [15], over 100 µM; in assay [16], over 81.6 µM; in [17] it was over 100 µM.
In the case of `COC(=O)C1=C(C)NC(C)=C(C(=O)OC)C1c1ccc(/[N+]([O-])=C/c2ccccc2)cc1`, the TGI was 33.3 µM in assay [1]; over 100 µM in assay [2]; over 100 µM in assay [3]; over 100 µM in assay [4]; over 100 µM in assay [5]; 35.5 µM in assay [6]. Besides, the TGI in assay [7] was over 100 µM; in assay [8], 32.6 µM; in assay [9] it was over 100 µM; in assay [10], 46.2 µM; in [11], over 100 µM; in [12], over 100 µM. For the same compound, the TGI is over 100 µM in [13]; over 100 µM in assay [14]; over 100 µM in assay [15]; 35 µM in [16]; over 100 µM in [17].
For `CC1(C)OCC2OC3(c4nc(C#N)c(N)o4)OC(C)(C)OC3C2O1` (stereo not drawn), the TGI in assay [1], in [2], in assay [3], in [4], in assay [5] and in [6] was over 100 µM in each case. Further, the TGI in [7], in [8], in assay [9], in assay [10], in assay [11] and in assay [12] was over 100 µM in each case. Moreover, the TGI in assay [13], in [14], in assay [15], in [16] and in assay [17] was over 100 µM throughout.
Consider `N#CC1Nc2ccccc2[C@@H](O)C1O` (stereo partly drawn), for which the TGI in [1], in assay [2], in [3], in [4], in [5] and in assay [6] was over 100 µM each time. The TGI in [7], in assay [8], in assay [9], in assay [10], in assay [11] and in [12] was over 100 µM throughout. In addition, the TGI in assay [13], in assay [14], in assay [15], in assay [16] and in assay [17] was over 100 µM in each case.
With `O=C(O)c1nc(-c2ccccn2)c(-c2ccccn2)nc1C(=O)O`, the TGI in assay [1] is 13.2 µM; in [2] it was 29.2 µM; in assay [3], 21 µM; in assay [4], over 100 µM; in assay [5], 16.4 µM; in assay [6], 18.8 µM. Further, the TGI came to 20.6 µM in [7]; 12.5 µM in [8]; 4.85 µM in [9]; 21.2 µM in [10]; 29.9 µM in [11]; 11.6 µM in assay [12]. The TGI in [13] amounted to 16.7 µM; in assay [14], 30.8 µM; in [15], 11.9 µM; in [16] it was 8.5 µM; in [17] it was 6.27 µM.
As for `Cc1ccc(S(=O)(=O)C2=Cc3ccc(C(F)(F)F)cc3C2(O)c2cccc(C(F)(F)F)c2)cc1` (stereo not drawn), the TGI in assay [1] was determined as 3.96 µM; in assay [2], 5.88 µM; in [3], 7.03 µM; in assay [4] it was 6.34 µM; in assay [5] it was 3.93 µM; in [6], 3.85 µM. For the same compound, the TGI in [7] turned out to be 3.84 µM; in assay [8], 4.05 µM; in assay [9], 6.9 µM; in assay [10], 4.44 µM; in [11], 3.57 µM; in [12], 13.9 µM. For the same compound, the TGI in assay [13] was determined as 3.52 µM; in [14], 4.28 µM; in assay [15], 8.61 µM; in assay [16], 14.6 µM; in assay [17], 5.71 µM.
Consider `C/C(=N\Nc1cc(CN2CCCC2)c(-c2ccc(Cl)cc2)nn1)C(=O)O`, for which the TGI in [1], in assay [2], in [3], in assay [4], in [5] and in [6] was over 100 µM in each case. The TGI in assay [7], in [8], in assay [9], in assay [10], in assay [11] and in [12] was over 100 µM each time. In addition, the TGI in [13], in assay [14], in [15], in [16] and in [17] was over 100 µM in each case.
On to `Clc1ccc(Cl)c(Nc2ccnc(SCc3ccccc3)n2)c1`, for which the TGI in assay [1], in [2], in assay [3], in assay [4], in [5] and in assay [6] was over 100 µM each time. The TGI in assay [7], in assay [8], in [9], in assay [10], in [11] and in assay [12] was over 100 µM each time. Moreover, the TGI in [13], in assay [14], in assay [15], in [16] and in [17] was over 100 µM throughout.
Turning to `NC(CCC(=O)NC(CSC(=O)N(O)c1ccc(Br)cc1)C(=O)NCC(=O)O)C(=O)O` (stereo not drawn), the TGI in [1] was over 100 µM; in [2], over 50 µM; in [3], over 100 µM; in [4], over 100 µM; in assay [5] it was over 100 µM; in [6], over 100 µM. For the same compound, the TGI in assay [7], in [8], in [9], in [10], in assay [11] and in [12] was over 100 µM throughout. For the same compound, the TGI was over 100 µM in assay [13]; over 50 µM in assay [14]; over 100 µM in assay [15]; over 100 µM in [16]; over 100 µM in [17]. The GI50 in [12] was 62.3 µM and 7.52 µM.
In the case of `COc1cccc(OC)c1/C=C1\OC(=O)c2cccc(OC)c21`, the TGI in assay [1] is over 100 µM; in assay [2] it was 3.32 µM; in [3], over 100 µM; in assay [4], over 100 µM; in assay [5], over 100 µM; in assay [6], over 100 µM. Also, the TGI in assay [7] is 6.21 µM; in [8], over 100 µM; in assay [9], over 100 µM; in assay [10], over 100 µM; in assay [11] it was over 30.1 µM; in [12], 17.9 µM. The TGI in assay [13] was over 100 µM; in assay [14], 2.12 µM; in assay [15], over 100 µM; in assay [16], over 75.2 µM; in assay [17] it was over 31 µM.
Turning to `COn1cc(C=O)c2ccccc21`, the TGI in [1] is over 100 µM; in assay [2], 62.7 µM; in [3] it was over 100 µM; in [4] it was over 100 µM; in assay [5] it was over 100 µM; in assay [6] it was over 100 µM. The TGI in [7] was over 100 µM; in assay [8], over 100 µM; in assay [9] it was over 100 µM; in assay [10], over 100 µM; in [11], over 100 µM; in [12] it was over 95.1 µM. In addition, the TGI in assay [13] is over 100 µM; in [14], 34.9 µM; in assay [15], over 100 µM; in assay [16], over 100 µM; in [17] it was over 100 µM.
With `O=C1NC(=O)C(c2c[nH]c3cc(Br)ccc23)=C1c1cn(C(c2ccccc2)(c2ccccc2)c2ccccc2)cn1`, the TGI in assay [1] is 23.2 µM; in [2], 27.8 µM; in assay [3], 28.5 µM; in assay [4], 45.9 µM; in assay [5], 51.2 µM; in [6] it was over 100 µM. Moreover, the TGI in assay [7] was 37.9 µM; in assay [8] it was over 100 µM; in assay [9], 31.4 µM; in assay [10], 36.5 µM; in assay [11] it was 25.8 µM; in assay [12], 48.8 µM. Also, the TGI in [13] was 33.4 µM; in [14] it was over 100 µM; in assay [15] it was 27.3 µM; in [16], 97.4 µM; in assay [17] it was over 100 µM.
For `CC(=O)c1csc2c1C(=O)c1scc(C(C)=O)c1C2=O`, the TGI is 4.12 µM in assay [1]; 0.319 µM in assay [2]; 3.08 µM in [3]; 4.35 µM in assay [4]; 2.41 µM in assay [5]; 3.73 µM in assay [6]. Besides, the TGI in assay [7] worked out at 3.28 µM; in [8] it was 1.65 µM; in assay [9], 2.35 µM; in assay [10] it was 3.09 µM; in assay [11], 3.73 µM; in assay [12] it was 4.54 µM. Besides, the TGI in assay [13] was 2.9 µM; in [14], 0.336 µM; in [15] it was 4.19 µM; in [16] it was 4.1 µM; in assay [17], 3.56 µM.
For the compound `N#CC(NNC(=O)Cc1ccccc1)c1ccccc1O` (stereo not drawn), the TGI is 72.5 µM in assay [1]; over 100 µM in [2]; over 100 µM in [3]; over 100 µM in assay [4]; over 94.3 µM in [5]; over 100 µM in assay [6]. Further, the TGI was 85.1 µM in [7]; over 100 µM in assay [8]; over 100 µM in assay [9]; 99.2 µM in assay [10]; over 100 µM in assay [11]; 85.6 µM in assay [12]. Besides, the TGI in assay [13] is 31.5 µM; in assay [14] it was over 100 µM; in assay [15] it was over 90.4 µM; in [16], over 89.9 µM; in assay [17], 28.8 µM.
